Measured values: paper PMC4009859, “Novel Cold-Adapted Esterase MHlip from an Antarctic Soil Metagenome” (Biology, 2013)

Target: T1, MHlip (uncultured bacterium, UniProt D3YKV3)
T1 construct: full length, 262 residues, 28,075 Da (theoretical), C-terminal 6xHis tag (pET22b NdeI/XhoI), E. coli BL21(DE3), Ni-NTA; N-terminus MPFAH
Test: spectrophotometric p-nitrophenol release at […] nm, initial rates, nonlinear Michaelis-Menten fit
Assay type: biochemical
Conditions: 20 mM Tris-HCl pH 8, 30 °C, pNPA 0-10 mM

T1 sequence (D3YKV3 1-262 limits assumed): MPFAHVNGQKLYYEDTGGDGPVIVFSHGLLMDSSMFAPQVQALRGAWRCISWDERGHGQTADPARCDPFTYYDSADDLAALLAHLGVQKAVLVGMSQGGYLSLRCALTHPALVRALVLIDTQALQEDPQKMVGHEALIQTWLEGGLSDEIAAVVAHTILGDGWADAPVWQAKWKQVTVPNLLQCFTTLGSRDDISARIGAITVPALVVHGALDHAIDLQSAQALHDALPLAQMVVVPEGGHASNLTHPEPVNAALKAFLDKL

For CC(=O)Oc1ccc([N+](=O)[O-])cc1 [pNPA], the Km was 1.2~0.1 mM.
